In patent US10428060B2, “PI-kinase inhibitors with anti-infective activity” (The Board of Trustees of the Leland Stanford Junior …, priority 2011, dated 2019) one finds IC50 and EC50 data, which are given here for 21 compounds.

T1 sequence (P48736 whole entry): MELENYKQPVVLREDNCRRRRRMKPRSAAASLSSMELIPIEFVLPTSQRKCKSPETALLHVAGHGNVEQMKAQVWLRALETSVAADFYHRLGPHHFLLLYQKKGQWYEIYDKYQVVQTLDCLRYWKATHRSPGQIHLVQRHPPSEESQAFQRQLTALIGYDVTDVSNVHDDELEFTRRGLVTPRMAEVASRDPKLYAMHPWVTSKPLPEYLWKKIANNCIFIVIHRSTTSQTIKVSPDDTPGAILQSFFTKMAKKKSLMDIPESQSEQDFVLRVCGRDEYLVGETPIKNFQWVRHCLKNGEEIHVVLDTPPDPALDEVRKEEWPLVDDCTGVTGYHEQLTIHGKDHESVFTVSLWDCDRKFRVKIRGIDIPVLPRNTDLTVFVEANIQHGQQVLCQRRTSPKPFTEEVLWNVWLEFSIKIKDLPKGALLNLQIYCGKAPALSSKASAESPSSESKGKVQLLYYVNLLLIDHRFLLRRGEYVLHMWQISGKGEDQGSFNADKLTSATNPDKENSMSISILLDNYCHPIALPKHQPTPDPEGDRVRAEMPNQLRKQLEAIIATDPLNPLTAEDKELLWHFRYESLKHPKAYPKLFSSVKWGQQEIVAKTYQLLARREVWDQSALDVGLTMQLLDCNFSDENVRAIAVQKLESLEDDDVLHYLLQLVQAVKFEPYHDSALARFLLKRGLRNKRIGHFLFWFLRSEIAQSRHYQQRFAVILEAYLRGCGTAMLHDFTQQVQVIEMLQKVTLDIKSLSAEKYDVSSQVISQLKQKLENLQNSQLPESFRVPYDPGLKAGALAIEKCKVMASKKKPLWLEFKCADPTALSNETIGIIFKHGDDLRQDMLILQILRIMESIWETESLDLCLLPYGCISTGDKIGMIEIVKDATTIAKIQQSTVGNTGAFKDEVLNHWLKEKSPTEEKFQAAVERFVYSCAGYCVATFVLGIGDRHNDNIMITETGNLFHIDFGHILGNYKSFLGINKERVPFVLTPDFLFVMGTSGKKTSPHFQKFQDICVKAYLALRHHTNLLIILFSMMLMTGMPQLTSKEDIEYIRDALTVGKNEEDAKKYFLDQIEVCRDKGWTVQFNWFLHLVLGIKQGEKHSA

One test concerns the target T1, PI3K p110g (Homo sapiens, UniProt P48736).
T1 construct: purchased Millipore
Nature of the test: PI3K p110g kinase assay.
Conditions: not given
The class given is biochemical. The procedure: (§1) In the assays described here, p110α-p85 complex and p110γ were acquired from Millipore. Assays were performed with Lα-phosphatidylinositol (Avanti) as described in Knight et al. Nat Protoc. 2007; 2 (10):2459-66. Inhibitor series were prepared 10% DMSO as 5× stocks for the assay. Assays of HsVps34 were performed as described in Knight et al, except that the final assay buffer composition used was changed to 20 mM HEPES 7.5, 100 mM NaCl, 3 mM MgCl, 1 mg/mL PI and 44 nM hvps34 was used in the assay. […] COS-7 cells were cultured in 10 cm dishes and transfected at 70% confluence with 10 μg of plasmid DNA (HA-tagged bovine PI4KIIIβ, HA-tagged human PI4KIIIα) using Lipofectamine 2000 and 5 ml Opti-MEM following the manufacturer's instructions. After 5 hours the transfection medium was replaced with 10 ml complete DMEM. 36 hrs post transfection, cells were washed once with 5 ml PBS (pH 7.4) and lysed in 1 ml of lysis buffer (1) on ice. Lysates were collected by scraping and after 15 min they were centrifuged at 13,000 rpm for 10 min. To the lysates was added 200 μl of protein G Sepharose 4 fast flow beads that were prewashed with PBS and lysis buffer and 2 μg of anti-HA antibody. The tubes were then incubated overnight at 4 degrees C. in a tube rotator. The Sepharose beads in the lysate were washed twice with 150 mM NaCl in RIPA buffer, twice with RIPA buffer and once with kinase buffer (50 mM Tris/HCl, pH 7.5, 20 mM MgCl2, 1 mM EGTA, 1 mM PtdIns, 0.4% Triton X-100, 0.5 mg/mL BSA) and finally the beads were resuspended in 200 μL kinase buffer. Kinase reactions were run in a mixture of 45 μL of PI buffer (1 mM PI in kinase buffer), 10 μL of immunoprecipitated beads, 2 µL of inhibitors (dissolved and diluted in DMSO) or DMSO and 5 μL of [γ-^32P]-ATP (1 mM and 2 μCi/tube). The immunoprecipitates in PI buffer were pre-incubated with the drugs for 20 min prior the initiation of kinase reaction by adding ATP and the reactions were carried out for 30 min in 15 ml polypropolyne tubes. Reactions were terminated by addition of 3 ml of CHCl3:CH3OH:HCl (200:100:0.75) followed by 0.6 ml of 0.6N HCl to induce phase separation. The mixtures were vortexed, centrifuged at 2000 rpm for 2 min and the upper phase was discarded. To the lower phase was added 1.5 ml of CHCl3:CH3OH:0.6N HCl (3:48:47) and the mixture vortexed and centrifuged at 2000 rpm for 2 min. The lower phase was then transferred to counting vials and evaporated. Samples were counted in a scintillation beta counter after adding 5 ml of Instafluor (Perkin-Elmer).
PI-kinase assay: Compounds are tested in C.1.1. PI kinase assays as described by Shokat et al., “A membrane capture assay for lipid kinase activity.” Nat. Protoc. 2007; 2(10):2459-66.
In the case of `COc1ccc(-c2sc(NC3CCCCC3)nc2C)cc1S(=O)(=O)NC1CCCC1` [Compound S-129, 5-[2-(cyclohexylamino)-4-methyl-thiazol-5-yl]-N-cyclopentyl-2-methoxy-benzenesulfonamide], the IC50 (as a rule, the concentration at which inhibition is half-maximal) was greater than 10 µM.

The compound `COc1ncc(-c2sc(NC(=O)CC3CCOCC3)nc2C)cc1S(=O)(=O)Nc1cccc(C(=O)O)c1` [Compound S-265] had an IC50 greater than 10 µM.

For the compound `COc1ccc(-c2sc(NC(=O)CC3CCOCC3)nc2C)cc1S(=O)(=O)Nc1ccc(F)cc1` [Compound S-170, N-[5-[3-[(4-fluorophenyl)sulfamoyl]-4-methoxy-phenyl]-4-methyl-thiazol-2-yl]-2-tetrahydropyran-4-yl-acetamide], the IC50 was greater than 10 µM.

Take `COc1ncc(-c2sc(NC(=O)CC3CCOCC3)nc2C)cc1S(=O)(=O)N[C@H]1CC[C@@H](O)CC1` [Compound S-262]: the IC50 is 1 to 10 µM.

Compound `COc1ccc(-c2sc(NC(=O)CC3CCCC3)nc2C)cc1S(=O)(=O)Nc1ccc(C)nc1` [Compound S-100, 2-cyclopentyl-N-[5-[4-methoxy-3-[(6-methyl-3-pyridyl)sulfamoyl]phenyl]-4-methyl-thiazol-2-yl]acetamide; 2,2,2-trifluoroacetic acid] gave an IC50 greater than 10 µM.

For the compound `COc1ccc(-c2sc(NCC3CCCCC3)nc2C)cc1S(=O)(=O)NCC1CCCCC1` [Compound S-128, N-(cyclohexylmethyl)-5-[2-(cyclohexylmethylamino)-4-methyl-thiazol-5-yl]-2-methoxy-benzenesulfonamide], the IC50 was greater than 10 µM.

Compound `COc1ccc(-c2sc(N[C@H](C)CC3CCCCC3)nc2C)cc1S(=O)(=O)NC1CCNCC1` [Compound S-145, 5-[2-[[(1R)-2-cyclohexyl-1-methyl-ethyl]amino]-4-methyl-thiazol-5-yl]-2-methoxy-N-(4-piperidyl)benzenesulfonamide] displayed an IC50 greater than 10 µM.

Take `COc1ccc(-c2sc(NCC3CCCCC3)nc2C)cc1S(=O)(=O)NC1CC1` [Compound S-127, 5-[2-(cyclohexylmethylamino)-4-methyl-thiazol-5-yl]-N-cyclopropyl-2-methoxy-benzenesulfonamide]: the IC50 is greater than 10 µM.

Compound `COc1ncc(-c2sc(NC(=O)CC3CCOCC3)nc2C)cc1S(=O)(=O)Nc1cccc(O)c1` [Compound S-259] had an IC50 of 1 to 10 µM.

Compound `COc1ccc(-c2sc(NC(=O)CC3CCOCC3)nc2C)cc1S(=O)(=O)Nc1cc(C)cc(O)c1` [Compound S-169, N-[5-[3-[(3-hydroxy-5-methyl-phenyl)sulfamoyl]-4-methoxy-phenyl]-4-methyl-thiazol-2-yl]-2-tetrahydropyran-4-yl-acetamide] displayed a half-maximal inhibitory concentration (IC50) greater than 10 µM.

Compound `COc1ccc(-c2sc(N[C@H](C)C3CCCCC3)nc2C)cc1S(=O)(=O)NC1CCNCC1` [Compound S-147, 5-[2-[[(1R)-1-cyclohexylethyl]amino]-4-methyl-thiazol-5-yl]-2-methoxy-N-(4-piperidyl)benzenesulfonamide] showed an IC50 greater than 10 µM.

The target in a further test is T2, PI4KIIIB (Bos taurus, UniProt O02810).
T2 construct: made in house; host or cells: COS-7 cells, transient transfection, anti-HA immunoprecipitate on protein G Sepharose beads
T2 sequence (O02810 whole entry): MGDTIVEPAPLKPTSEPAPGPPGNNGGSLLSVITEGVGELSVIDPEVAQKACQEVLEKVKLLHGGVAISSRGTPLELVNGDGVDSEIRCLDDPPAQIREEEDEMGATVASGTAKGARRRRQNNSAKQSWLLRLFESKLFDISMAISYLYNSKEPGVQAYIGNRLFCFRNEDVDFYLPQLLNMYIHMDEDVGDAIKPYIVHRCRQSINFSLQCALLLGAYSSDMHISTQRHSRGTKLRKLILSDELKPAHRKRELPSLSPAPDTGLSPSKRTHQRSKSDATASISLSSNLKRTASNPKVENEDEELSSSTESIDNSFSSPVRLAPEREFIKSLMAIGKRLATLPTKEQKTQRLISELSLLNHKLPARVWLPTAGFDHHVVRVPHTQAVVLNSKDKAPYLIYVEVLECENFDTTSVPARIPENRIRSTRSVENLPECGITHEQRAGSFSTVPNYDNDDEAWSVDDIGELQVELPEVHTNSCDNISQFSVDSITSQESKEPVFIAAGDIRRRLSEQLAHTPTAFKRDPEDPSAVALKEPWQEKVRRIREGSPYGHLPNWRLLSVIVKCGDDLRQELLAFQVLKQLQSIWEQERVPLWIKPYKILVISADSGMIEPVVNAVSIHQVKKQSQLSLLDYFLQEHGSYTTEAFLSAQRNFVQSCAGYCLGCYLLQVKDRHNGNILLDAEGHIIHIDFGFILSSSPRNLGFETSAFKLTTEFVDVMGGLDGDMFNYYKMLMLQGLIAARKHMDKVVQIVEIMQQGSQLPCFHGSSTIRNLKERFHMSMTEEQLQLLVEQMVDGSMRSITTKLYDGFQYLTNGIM
Nature of the test: PI4KIIIB kinase assay. The class given is biochemical, bovine.
Conditions: not given
The procedure: as §1, with “2007; 2 (10):2459-66.” left out, “for” for “for the assay. Assays of HsVps34 were performed as described in Knight et al, except that the final assay buffer composition used was changed to 20 mM HEPES 7.5, 100 mM NaCl, 3 mM MgCl, 1 mg/mL PI and 44 nM hvps34 was used in”, “Lysates were collected by scraping and after 15 min they were centrifuged at 13,000 rpm for 10 min.” left out, “The Sepharose beads in the lysate were washed twice with 150 mM NaCl in RIPA buffer, twice with RIPA buffer and once with kinase buffer (50 mM Tris/HCl, pH 7.5, 20 mM MgCl2, 1 mM EGTA, 1 mM PtdIns, 0.4% Triton X-100, 0.5 mg/mL BSA) and finally the beads were resuspended in 200 μL kinase buffer.” left out
PI-kinase assay: Compounds are tested in C.1.1. PI kinase assays as described by Shokat et al., “A membrane capture assay for lipid kinase activity.” Nat. Protoc.
With `COc1ccc(-c2sc(NC(=O)CC3CCCC3)nc2C)cc1S(=O)(=O)NC1CCCNC1` (stereo not drawn) [Compound S-173, 2-cyclopentyl-N-[5-[4-methoxy-3-(3-piperidylsulfamoyl)phenyl]-4-methyl-thiazol-2-yl]acetamide; 2,2,2-trifluoroacetic acid], the IC50 is less than 0.1 µM.

Take `COc1ccc(-c2sc(NC(C)(C)C)nc2C)cc1S(=O)(=O)NC1CCCC(O)C1` (stereo not drawn) [Compound S-218, 5-[2-(tert-butylamino)-4-methyl-thiazol-5-yl]-N-(3-hydroxycyclohexyl)-2-methoxy-benzenesulfonamide]: the IC50 was less than 0.1 µM.

With `COc1ccc(-c2sc(NCC3CCCCC3)nc2C)cc1S(=O)(=O)NC1CCCC(O)C1` (stereo not drawn) [Compound S-199, 5-[2-(cyclohexylmethylamino)-4-methyl-thiazol-5-yl]-N-(3-hydroxycyclohexyl)-2-methoxy-benzenesulfonamide], the IC50 is less than 0.1 µM.

`COc1ccc(-c2sc(NCC(C)C)nc2C)cc1S(=O)(=O)NC1CCCC(O)C1` (stereo not drawn) [Compound S-223, N-(3-hydroxycyclohexyl)-5-[2-(isobutylamino)-4-methyl-thiazol-5-yl]-2-methoxy-benzenesulfonamide; 2,2,2-trifluoroacetic acid] showed an IC50 of less than 0.1 µM.

Compound `COc1ccc(-c2sc(NC(=O)CCC3CCCC3)nc2C)cc1S(=O)(=O)NC1CCC(O)CC1` (stereo not drawn) [Compound S-156, 3-cyclopentyl-N-[5-[3-[(4-hydroxycyclohexyl)sulfamoyl]-4-methoxy-phenyl]-4-methyl-thiazol-2-yl]propanamide] registered an IC50 of less than 0.1 µM.

Consider `Cc1ccc(-c2sc(NC(=O)CC3CCCC3)nc2C)cc1S(=O)(=O)NC1CCCNC1` (stereo not drawn) [Compound S-189, 2-cyclopentyl-N-[4-methyl-5-[4-methyl-3-(3-piperidylsulfamoyl)phenyl]thiazol-2-yl]acetamide], for which the IC50 was less than 0.1 µM.

`COc1ccc(-c2sc(NC(C)(C)C)nc2C)cc1S(=O)(=O)NC1CCCNC1` (stereo not drawn) [Compound S-220, 5-[2-(tert-butylamino)-4-methyl-thiazol-5-yl]-2-methoxy-N-(3-piperidyl)benzenesulfonamide] registered an IC50 of less than 0.1 µM.

Another test has as its system HRV. Nature of the test: Rhinovirus antiviral assay. The class given is cell-based. The note with it: Human rhinovirus sp.
Regarding `COc1ccc(NS(=O)(=O)c2cc(-c3sc(NC(=O)CC4CCCCC4)nc3C)ccc2OC)c(C)c1` [Compound S-85, 2-cyclohexyl-N-[5-[4-methoxy-3-[(4-methoxy-2-methyl-phenyl)sulfamoyl]phenyl]-4-methyl-thiazol-2-yl]acetamide], the EC50 (in general, the concentration that produces a half-maximal response) is less than 0.001 µM.

`COc1ccc(-c2sc(NC3CCCCC3)nc2C)cc1S(=O)(=O)Nc1ccc(O)cc1C` [Compound S-106, 5-[2-(cyclohexylamino)-4-methyl-thiazol-5-yl]-N-(4-hydroxy-2-methyl-phenyl)-2-methoxy-benzenesulfonamide] gave an EC50 of less than 0.001 µM.

In turn, `COc1ccc(NS(=O)(=O)c2cc(-c3sc(NC4CCCCCC4)nc3C)ccc2OC)c(C)c1` [Compound S-89, 5-[2-(cycloheptylamino)-4-methyl-thiazol-5-yl]-2-methoxy-N-(4-methoxy-2-methyl-phenyl)benzenesulfonamide; 2,2,2-trifluoroactic acid] registered an EC50 of less than 0.001 µM.
